Legend:
Assay type in all cases: cell-based
[1] = tested on: Non-MM, bone marrow cells (CD138−)
4 MM cell lines = tested on: 4 MM cell lines
MM.1S cells [2] = tested on: MM.1S cells
MM.1S cells [3] = tested on: MM.1S cells; remark: listed apart in the source
U266 cells = tested on: U266 cells

**Q.** CC(C)C[C@H](NC(=O)[C@H](Cc1ccccc1)NC(=O)c1cnccn1)B(O)O [bortezomib] was tested. Which polyUb proteins accumulation [1] did it give?
**A.** Its polyUb proteins accumulation is “only modest polyUb proteins accumulation”.

**Q.** And the “polyUb protein fluorescence (proteotoxicity)” value (4 MM cell lines)?
**A.** Its value is “increased fluorescence in all cell lines”.

**Q.** How did the “effect on polyUb” value (MM.1S cells [2]) turn out when C[C@@H]1C[C@@H]([C@H](O)CC2CC(=O)NC(=O)C2)C(=O)[C@@H](C)C1 [cycloheximide] was run?
**A.** The value was “decreases polyUb”.

**Q.** And the “effect on bortezomib-induced apoptosis” value (MM.1S cells [3])?
**A.** The value was “decreased bortezomib-induced apoptosis”.

**Q.** With tunicamycin as the compound, how does the “sensitization to Btz-induced apoptosis” value (U266 cells) read?
**A.** The value was “sensitizes U266 cells to Btz-induced apoptosis”.
